For assay [1], the system named is Rattus norvegicus. The assay is described as follows: Tested for anti PCA- activity when compound was administered perorally 60 min before challenge in. In kind it is functional. Conditions: po.
The subject of assay [2] is Rattus norvegicus. Briefly: PCA activity of compound in rat at 100 mg/kg dose. In kind it is functional.
Assay [3] deals with Rattus norvegicus. Briefly: Tested for antigenic challenge time, time measured was immediate when compound was administered before challenge in rat; immediate. The assay is classed as functional, organism-based.
Assay [4] has as its system Rattus norvegicus. The assay is described as follows: Tested for PCA activity of compound in rat at 10 mg/kg intravenous dose. In kind it is functional.
Assay [5] relates to Rattus norvegicus. The assay is described as follows: Tested for PCA activity in rat at 200 mg/kg dose. The assay is classed as functional.
In assay [6] the test system is Rattus norvegicus. The assay is described as follows: Tested for anti PCA- activity when compound was administered orally 60 min before challenge in exp2. The assay is classed as functional. Particulars: po.
For assay [7], the system named is Rattus norvegicus. Briefly: Tested for anti PCA- activity when compound was administered orally 60 min before challenge in exp1. In kind it is functional. Particulars: po.
In assay [8] the test system is Rattus norvegicus. Briefly: Tested for PCA activity of compound in rat at 50 mg/kg dose. In kind it is functional.
The subject of assay [9] is Rattus norvegicus. Briefly: Tested for PCA activity of compound in rat at 25 mg/kg dose. In kind it is functional.
For assay [10], the system named is Rattus norvegicus. The assay is described as follows: Tested for PCA activity of compound in rat at 50 mg/kg dose at 60 min challenge time. In kind it is functional. Particulars: 1 h.
The subject of assay [11] is Rattus norvegicus. The assay is described as follows: Tested for antigenic challenge time, time measured was immediate when compound was administered before challenge in rat; Immed = Immediate. In kind it is functional, organism-based.
The test system of assay [12] is Rattus norvegicus. Briefly: Tested for PCA activity of compound in rat at 1.0 mg/kg intravenous dose. The assay is classed as functional.
Assay [13] concerns Rattus norvegicus. Briefly: Tested for PCA activity of compound in rat at 5 mg/kg intravenous dose. In kind it is functional.
The subject of assay [14] is Rattus norvegicus. The assay is described as follows: Tested for antigenic challenge time, time measured was immediate when compound was administered before challenge in rat;Immed = Immediate. The assay is classed as functional, organism-based.
For assay [15], the system named is Rattus norvegicus. The assay is described as follows: Tested for PCA activity of compound in rat at 2.5 mg/kg intravenous dose. In kind it is functional.
Assay [16] relates to Rattus norvegicus. Briefly: Tested for anti PCA- activity when compound was administered intravenously 60 min before challenge in rat. The assay is classed as functional. Particulars: iv.

For `Cn1c(=O)c2nc[nH]c2n(C)c1=O.O` [THEOPHYLLINE], the median effective dose (ED50) in assay [1] worked out at 47.2 mg/kg.

`CCN(CC)CCNC(=O)c1cc(Cl)ccc1NC(=O)COc1ccc(Cl)cc1` displayed an inhibition in vivo at 100 mg/kg in assay [2] of 0%.

`COc1cc(NC(=O)COc2ccc(Cl)cc2)c(Cl)cc1C(=O)N1CCN(C)CC1`: in assay [2], the inhibition in vivo at 100 mg/kg is 0%.

`CCN(CC)CCNC(=O)c1cc(Cl)c(N)cc1OC` [METOCLOPRAMIDE]: the Challenge time result in [3] is “Immediate”. In assay [4], this compound yielded an inhibition in vivo at 10 mg/kg of 84%. This compound displayed an inhibition in vivo at 100 mg/kg in assay [2] of 14%.

Compound `CCN(CC)CCNC(=O)c1cc(Cl)c(NC(=O)COc2ccc(C)cc2)cc1OC` came in with an inhibition in vivo at 100 mg/kg in assay [2] of 22%.

Turning to `CCN(CC)CCNC(=O)c1cc(NC(=O)COc2ccc(Cl)cc2)ccc1OC(C)=O`, the inhibition in vivo at 100 mg/kg in assay [2] was determined as 0%.

Compound `CCN(CC)CCNC(=O)c1cc(Cl)c(NC(=O)CSc2ccccc2)cc1OC` came in with an inhibition in vivo at 100 mg/kg in assay [2] of 26%.

Take `COc1cc(NC(=O)COc2ccc(Cl)cc2)c(Cl)cc1C(=O)N1CCN(C/C=C/c2ccccc2)CC1`: the inhibition in vivo at 100 mg/kg in assay [2] was found to be 0%.

In the case of `CCN(CC)CCNC(=O)c1cc(Cl)c(NC(=O)COc2ccc(Cl)cc2Cl)cc1OC`, the inhibition in vivo at 200 mg/kg in assay [5] came out at 0%.

Turning to `CCN(CC)CCNC(=O)c1cc(Cl)c(NC(=O)C(C)Oc2ccc(Cl)cc2)cc1OC.Cl` (stereo not drawn), the ED50 in assay [6] is 60.9 mg/kg; in assay [7] it was 64.5 mg/kg. In [2], the inhibition in vivo at 100 mg/kg amounted to 62%. Moreover, testing at 200 mg/kg in assay [5] gave an inhibition in vivo of 32%. Besides, in assay [8], the inhibition in vivo at 50 mg/kg turned out to be 41%.

In the case of `CCN(CC)CCNC(=O)c1cc(Cl)c(NC(=O)CNc2ccccc2)cc1OC`, the inhibition in vivo at 100 mg/kg in assay [2] amounted to 5%.

For the compound `CCN1CCCC1CNC(=O)c1cc(Cl)c(NC(=O)COc2ccc(Cl)cc2)cc1OC` (stereo not drawn), 25 mg/kg produced 53% inhibition in vivo in assay [9]. Besides, 50 mg/kg produced 60% inhibition in vivo in [8].

`CCN(CC)CCNC(=O)c1cc(Cl)c(NC(=O)COc2cccc(C(F)(F)F)c2)cc1OC.Cl` came in with an inhibition in vivo at 100 mg/kg in [2] of 53%. Further, the inhibition in vivo at 200 mg/kg in assay [5] was determined as 40%.

In assay [5], `CCN(CC)CCNC(=O)c1cc(Cl)c(NC(=O)COc2cccc(Cl)c2Cl)cc1OC` showed an inhibition in vivo at 200 mg/kg of 0%.

Consider `CCN(CC)CCNC(=O)c1cc(Cl)c(NC(=O)COc2ccc(F)cc2)cc1OC`, for which, in assay [2], the inhibition in vivo at 100 mg/kg amounted to 33%. Moreover, the inhibition in vivo at 200 mg/kg in assay [5] is 67%.

On to `CCN(CC)CCNC(=O)c1cc(Cl)ccc1NC(=O)COc1ccc(F)cc1`, for which 100 mg/kg produced 0% inhibition in vivo in assay [2].

With `CCN(CC)CCNC(=O)c1ccc(NC(=O)COc2ccc(Cl)cc2)c(OC)c1`, the inhibition in vivo at 200 mg/kg in assay [5] came out at 20%.

For `CCN(CC)CCNC(=O)c1cc(Cl)c(NC(=O)COc2ccc(Cl)cc2)cc1OC.Cl` [CLOXACEPRIDE HYDROCHLORIDE], the figures for the ED50 in [6] and in [7] were 46.9 mg/kg and 49 mg/kg, respectively. The same compound returned an inhibition in vivo at 100 mg/kg in [2] of 69%. The compound also registered an inhibition in vivo at 200 mg/kg in assay [5] of 75%. In assay [10], this compound gave an inhibition in vivo at 50 mg/kg of 49%.

`CCN(CC)CCNC(=O)c1ccc(Cl)c(NC(=O)COc2ccc(Cl)cc2)c1` returned an inhibition in vivo at 100 mg/kg in assay [2] of 7%.

With `CCN(CC)CCNC(=O)c1cc(Cl)c(NC(=O)C(Oc2ccc(Cl)cc2)Oc2ccc(Cl)cc2)cc1OC`, the inhibition in vivo at 200 mg/kg in assay [5] was found to be 0%.

For `O=C([O-])c1cc(=O)c2c(OCC(O)COc3cccc4oc(C(=O)[O-])cc(=O)c34)cccc2o1.[Na+].[Na+]` [CROMOLYN SODIUM], the Challenge time result in assay [11] and in assay [14] was “Immed” each time. For the same compound, at 1 mg/kg the inhibition in vivo in assay [12] was 28%. The same compound displayed an inhibition in vivo at 5 mg/kg in [13] of 78%. In [15], this compound showed an inhibition in vivo at 2.5 mg/kg of 58%. In addition, in [16], the 50% effect level (ED50) was put at a dose of 2 mg/kg.

`CCN(CC)CCNC(=O)c1cc(Cl)c(NC(=O)COc2ccccc2)cc1OC` came in with an inhibition in vivo at 100 mg/kg in assay [2] of 47%. For the same compound, the inhibition in vivo at 200 mg/kg in assay [5] stood at 67%.

For the compound `CCN(CC)CCCNC(=O)c1cc(Cl)c(NC(=O)COc2ccc(Cl)cc2)cc1OC`, in assay [5], the inhibition in vivo at 200 mg/kg turned out to be 20%.

Regarding `CCN(CC)CCNC(=O)c1ccc(NC(=O)COc2ccccc2)c(OC)c1`, the inhibition in vivo at 200 mg/kg in assay [5] was 20%.

In the case of `COc1cc(NC(=O)COc2ccc(Cl)cc2)c(Cl)cc1C(=O)O`, the inhibition in vivo at 200 mg/kg in assay [5] came to 0%.

For the compound `CCN(CC)CCNC(=O)c1cc(Cl)c(NC(=O)COc2ccc(Cl)c(Cl)c2)cc1OC.Cl`, in [2], the inhibition in vivo at 100 mg/kg is 0%. In assay [5], this compound showed an inhibition in vivo at 200 mg/kg of 0%.

`COc1cc(NC(=O)COc2ccc(Cl)cc2)c(Cl)cc1C(=O)N1CCN(C(c2ccccc2)c2ccccc2)CC1` had an inhibition in vivo at 100 mg/kg in [2] of 0%.

Turning to `CCN(CC)CCNC(=O)c1cc(Cl)c(NC(=O)COc2ccc(OC)cc2)cc1OC.Cl`, in assay [2], the inhibition in vivo at 100 mg/kg was 53%. The compound also showed an inhibition in vivo at 200 mg/kg in assay [5] of 33%.

In assay [2], `CCOC(=O)c1cc(Cl)c(NC(=O)COc2ccc(Cl)cc2)cc1OC` displayed an inhibition in vivo at 100 mg/kg of 93%. The inhibition in vivo at 200 mg/kg in [5] was determined as 20%.

On to `CCN(CC)CCNC(=O)c1cccc(NC(=O)COc2ccc(Cl)cc2)c1`, for which, in assay [2], the inhibition in vivo at 100 mg/kg came out at 7%.

`O=C(O)c1ccc2oc3ccc(OCCO)cc3c(=O)c2c1` came in with an inhibition in vivo at 100 mg/kg in assay [2] of 71%.

On to `CCN(CC)CCNC(=O)c1cc(Cl)c(NC(=O)C(C)(C)Oc2ccc(Cl)cc2)cc1OC.Cl`, for which, in [2], at 100 mg/kg the inhibition in vivo was 0%. Besides, at 200 mg/kg the inhibition in vivo in assay [5] was 20%.

For `COc1cc(NC(=O)COc2ccc(Cl)cc2)c(Cl)cc1NCCN1CCCC1`, 200 mg/kg produced 20% inhibition in vivo in assay [5].

Compound `CCN(CC)CCNC(=O)c1cc(Cl)c(NC(=O)COc2ccc(I)cc2)cc1OC` returned an inhibition in vivo at 100 mg/kg in assay [2] of 0%. In addition, in [5], the inhibition in vivo at 200 mg/kg came out at 27%.

On to `CCN(CC)CCNC(=O)c1cc(Cl)c(NC(=O)COc2ccccc2Cl)cc1OC`, for which the inhibition in vivo at 200 mg/kg in [5] amounted to 0%.

For `COc1cc(NC(=O)COc2ccc(Cl)cc2)c(Cl)cc1C(=O)NCc1cccnc1`, at 200 mg/kg the inhibition in vivo in assay [5] was 20%.

Consider `CCN(CC)CCNC(=O)c1ccc(NC(=O)COc2ccc(Cl)cc2)cc1`, for which at 200 mg/kg the inhibition in vivo in [5] was 0%.

The compound `CCN(CC)CCNC(=O)c1ccc(NC(=O)COc2ccc(Cl)cc2)c(Cl)c1.O=C(O)CC(O)(CC(=O)O)C(=O)O` displayed an inhibition in vivo at 100 mg/kg in [2] of 14%. This compound also yielded an inhibition in vivo at 200 mg/kg in [5] of 0%.

One may read the ED50 as the dose at which the effect has come halfway, by size or by number of responders. Low readings indicate an effect at a small dose, high ones a need for a large dose. One may read the inhibition in vivo as how much of the control response was suppressed. Low readings indicate little suppression, high ones strong suppression.

The values are drawn from ChEMBL document CHEMBL1122248, “Cloxacepride and related compounds: a new series of orally active antiallergic compounds” (1983).
